According to patent US11439650B2, “Thermo-kinetic mixing for pharmaceutical applications” (BOARD OF REGENTS, THE UNIVERSITY OF TEXAS SYSTEM, priority 2007, dated 2022):

Legend:
[1] = HPLC degradation products and mass balance of hydrocortisone formulation processed by TKC; format: physicochemical
Method: Pharmaceutical compositions of hydrocortisone were prepared by TKC, having an ejection temperature of approximately 160° C., and compared to the unprocessed drug substance to evaluate the formation of degradation products induced by processing.
Analytical testing of the hydrocortisone formulation processed by TKC was performed by HPLC using a Phenomenex C18 column and mobile phase of 65:35 methanol:water at a flow rate of 1 ml/min. Degradation products were identified and are described in terms of their retention time under this method.

[2] = neutral pH media; reference (42); cited from earlier work
[3] = DSC / modulated DSC glass transition analysis; format: physicochemical; details: DSC/mDSC, 10° C./min
Method: Differential Scanning calorimetry (DSC). DSC analysis was conducted using a TA Instruments Model 2920 DSC (New Castle, Del.) equipped with a refrigerated cooling system. Samples were weighed to 15±5 mg in aluminum crimped pans (Kit 0219-0041, Perkin-Elmer Instruments, Norwalk, Conn.). For the KTZ dispersions in Methocel™ E50 and Kollidon® 30 the samples were heated at a ramp rate of 10° C./min from 5 to 215° C. with a modulation temperature amplitude of 0.5° C. and a modulation period of 40 seconds for all studies. For the IND and KTZ dispersions in […]® L 100-55 the samples were analyzed by conventional, non-modulated DSC at a ramp rate of 10° C./min from 5 to 200° C. Ultrahigh purity nitrogen was used as the purge gas at a flow rate of 40 mL/min. All data analyses were performed using TA Universal Analysis 2000 software. The thermogram for amorphous KTZ, used in the DSC analysis of the solid dispersions formulations of KTZ in Methocel™ E50 and Kollidon® 30 was obtained on a second heating of crystalline KTZ following an initial heating to 215° C. followed by rapid cooling (20° C./min) to 5° C. The thermograms of Methocel™ E50 and Kollidon® 30 were obtained by first run DSC following preheating of the polymer powders to 90° C. for 15 minutes in an MF-50 model moisture analyzer (AND Company Ltd. Encino, Calif.) to expel absorbed moisture.
Modulated Differential scanning calorimetry testing for the griseofulvin products was performed using a TA Instruments Model 2920 DSC (New Castle, Del.) and analyzed using TA Universal Analysis 2000 Software. Samples were accurately weighed to 15±2 mg in aluminum crimped pans. […]
Modulated Differential scanning calorimetry testing of itraconazole:HPMC E5 processed by TKC and by HME was performed using a TA Instruments Model 2920 DSC (New Castle, Del.) and analyzed using TA Universal Analysis 2000 Software. […]
The tested were conducted on a TA Instruments Model 2920 DSC (New Castle, Del.) and analyzed using TA Universal Analysis 2000 Software. […]

**Q.** Which “Impurity - 3.2” value ([1]; HPLC retention time 3.2) does the source give for C[C@]12CCC(=O)C=C1CC[C@@H]1[C@@H]2[C@@H](O)C[C@@]2(C)[C@H]1CC[C@]2(O)C(=O)CO [Hydrocortisone, USP, Hydrocortisone] here?
**A.** 0.20%

**Q.** And the “Impurity - 3.9” value ([1]; HPLC retention time 3.9)?
**A.** 0.26%

**Q.** What about the “Impurity - 4.9” value ([1]; HPLC retention time 4.9) of the same molecule?
**A.** 0.20%

**Q.** What about the “Impurity - 5.5” value ([1]; HPLC retention time 5.5) of the same molecule?
**A.** 0.62%

**Q.** And the “Impurity - 8.7” value ([1]; HPLC retention time 8.7)?
**A.** 0.13%

**Q.** For CC(=O)N1CCN(c2ccc(OCC3COC(Cn4ccnc4)(c4ccc(Cl)cc4Cl)O3)cc2)CC1 (stereo not drawn) [KTZ, ketoconazole], which “equilibrium (saturation) solubility” value [2] is on record?
**A.** 5.98 µg/mL

**Q.** With CC(=O)N1CCN(c2ccc(OCC3COC(Cn4ccnc4)(c4ccc(Cl)cc4Cl)O3)cc2)CC1 (stereo not drawn) [amorphous KTZ, ketoconazole] as the molecule, how does the “glass transition temperature (Tg)” value [3] read?
**A.** 45 °C

**Q.** What about the “glass transition temperature (Tg)” value ([3]; listed as Amorphous KTZ) of the same molecule?
**A.** approximately 45 °C

**Q.** For COC1=CC(=O)C[C@@H](C)[C@]12Oc1c(Cl)c(OC)cc(OC)c1C2=O [amorphous griseofulvin, griseofulvin], which “glass transition temperature (Tg)” value [3] is on record?
**A.** 90 °C
